ChEMBL document CHEMBL5244269, “Improving metabolic stability and removing aldehyde oxidase liability in a 5-azaquinazoline series of IRAK4 inhibitors” (Bioorg Med Chem, 2020)

Columns and labels:
Assay type in all cases: functional
OCI-Ly10 [1] = experiment: Growth inhibition of human OCILY10 cells at 0.17 uM incubated for 3 days in presence of 0.003 uM acalabrutinib relative to control; settings: OCI-Ly10, 72 h, time 3 day, read-out: GI
SUD4 [2] = experiment: Growth inhibition of human SU-DHL-4 cells at 0.33 uM incubated for 3 days in presence of 0.17 uM acalabrutinib relative to control; settings: SU-DHL-4, 72 h, time 3 day, read-out: GI
SUD4 [3] = experiment: Growth inhibition of human SU-DHL-4 cells at 10 uM incubated for 3 days in presence of 0.017 uM acalabrutinib relative to control; settings: SU-DHL-4, 72 h, time 3 day, read-out: GI
OCI-Ly10 [4] = experiment: Growth inhibition of human OCILY10 cells at 10 uM incubated for 3 days in presence of 0.003 uM acalabrutinib relative to control; settings: OCI-Ly10, 72 h, time 3 day, read-out: GI
SUD4 [5] = experiment: Growth inhibition of human SU-DHL-4 cells at 3.3 uM incubated for 3 days in presence of 0.17 uM acalabrutinib relative to control; settings: SU-DHL-4, 72 h, time 3 day, read-out: GI
OCI-Ly10 [6] = experiment: Growth inhibition of human OCILY10 cells at 10 uM incubated for 3 days in presence of 0.33 uM acalabrutinib relative to control; settings: OCI-Ly10, 72 h, time 3 day, read-out: GI
OCI-Ly10 [7] = experiment: Growth inhibition of human OCILY10 cells at 0.17 uM incubated for 3 days in presence of 0.017 uM acalabrutinib relative to control; settings: OCI-Ly10, 72 h, time 3 day, read-out: GI
OCI-Ly10 [8] = experiment: Growth inhibition of human OCILY10 cells at 0.17 uM incubated for 3 days in presence of 0.33 uM acalabrutinib relative to control; settings: OCI-Ly10, 72 h, time 3 day, read-out: GI
SUD4 [9] = experiment: Growth inhibition of human SU-DHL-4 cells at 10 uM incubated for 3 days in presence of 0.33 uM acalabrutinib relative to control; settings: SU-DHL-4, 72 h, time 3 day, read-out: GI
SUD4 [10] = experiment: Growth inhibition of human SU-DHL-4 cells at 0.17 uM incubated for 3 days in presence of 0.17 uM acalabrutinib relative to control; settings: SU-DHL-4, 72 h, time 3 day, read-out: GI
SUD4 [11] = experiment: Growth inhibition of human SU-DHL-4 cells at 0.17 uM incubated for 3 days in presence of 0.33 uM acalabrutinib relative to control; settings: SU-DHL-4, 72 h, time 3 day, read-out: GI
OCI-Ly10 [12] = experiment: Growth inhibition of human OCILY10 cells at 0.33 uM incubated for 3 days in presence of 0.033 uM acalabrutinib relative to control; settings: OCI-Ly10, 72 h, time 3 day, read-out: GI
OCI-Ly10 [13] = experiment: Growth inhibition of human OCILY10 cells at 1.7 uM incubated for 3 days in presence of 0.33 uM acalabrutinib relative to control; settings: OCI-Ly10, 72 h, time 3 day, read-out: GI
SUD4 [14] = experiment: Growth inhibition of human SU-DHL-4 cells at 3.3 uM incubated for 3 days in presence of 0.033 uM acalabrutinib relative to control; settings: SU-DHL-4, 72 h, time 3 day, read-out: GI
SUD4 [15] = experiment: Growth inhibition of human SU-DHL-4 cells at 0.33 uM incubated for 3 days in presence of 0.003 uM acalabrutinib relative to control; settings: SU-DHL-4, 72 h, time 3 day, read-out: GI
OCI-Ly10 [16] = experiment: Growth inhibition of human OCILY10 cells at 10 uM incubated for 3 days in presence of 0.017 uM acalabrutinib relative to control; settings: OCI-Ly10, 72 h, time 3 day, read-out: GI
SUD4 [17] = experiment: Growth inhibition of human SU-DHL-4 cells at 3.3 uM incubated for 3 days in presence of 0.017 uM acalabrutinib relative to control; settings: SU-DHL-4, 72 h, time 3 day, read-out: GI
OCI-Ly10 [18] = experiment: Growth inhibition of human OCILY10 cells at 1.7 uM incubated for 3 days in presence of 0.017 uM acalabrutinib relative to control; settings: OCI-Ly10, 72 h, time 3 day, read-out: GI
SUD4 [19] = experiment: Growth inhibition of human SU-DHL-4 cells at 0.17 uM incubated for 3 days in presence of 0.033 uM acalabrutinib relative to control; settings: SU-DHL-4, 72 h, time 3 day, read-out: GI
OCI-Ly10 [20] = experiment: Growth inhibition of human OCILY10 cells at 3.3 uM incubated for 3 days in presence of 0.003 uM acalabrutinib relative to control; settings: OCI-Ly10, 72 h, time 3 day, read-out: GI
OCI-Ly10 [21] = experiment: Growth inhibition of human OCILY10 cells at 1.7 uM incubated for 3 days in presence of 0.003 uM acalabrutinib relative to control; settings: OCI-Ly10, 72 h, time 3 day, read-out: GI
OCI-Ly10 [22] = experiment: Growth inhibition of human OCILY10 cells at 0.17 uM incubated for 3 days in presence of 0.033 uM acalabrutinib relative to control; settings: OCI-Ly10, 72 h, time 3 day, read-out: GI
SUD4 [23] = experiment: Growth inhibition of human SU-DHL-4 cells at 0.33 uM incubated for 3 days in presence of 0.017 uM acalabrutinib relative to control; settings: SU-DHL-4, 72 h, time 3 day, read-out: GI
SUD4 [24] = experiment: Growth inhibition of human SU-DHL-4 cells at 10 uM incubated for 3 days in presence of 0.003 uM acalabrutinib relative to control; settings: SU-DHL-4, 72 h, time 3 day, read-out: GI
SUD4 [25] = experiment: Growth inhibition of human SU-DHL-4 cells at 10 uM incubated for 3 days in presence of 0.033 uM acalabrutinib relative to control; settings: SU-DHL-4, 72 h, time 3 day, read-out: GI
OCI-Ly10 [26] = experiment: Growth inhibition of human OCILY10 cells at 3.3 uM incubated for 3 days in presence of 0.017 uM acalabrutinib relative to control; settings: OCI-Ly10, 72 h, time 3 day, read-out: GI
OCI-Ly10 [27] = experiment: Growth inhibition of human OCILY10 cells at 0.17 uM incubated for 3 days in presence of 0.17 uM acalabrutinib relative to control; settings: OCI-Ly10, 72 h, time 3 day, read-out: GI
SUD4 [28] = experiment: Growth inhibition of human SU-DHL-4 cells at 10 uM incubated for 3 days in presence of 0.17 uM acalabrutinib relative to control; settings: SU-DHL-4, 72 h, time 3 day, read-out: GI
SUD4 [29] = experiment: Growth inhibition of human SU-DHL-4 cells at 1.7 uM incubated for 3 days in presence of 0.003 uM acalabrutinib relative to control; settings: SU-DHL-4, 72 h, time 3 day, read-out: GI
SUD4 [30] = experiment: Growth inhibition of human SU-DHL-4 cells at 1.7 uM incubated for 3 days in presence of 0.33 uM acalabrutinib relative to control; settings: SU-DHL-4, 72 h, time 3 day, read-out: GI
SUD4 [31] = experiment: Growth inhibition of human SU-DHL-4 cells at 0.33 uM incubated for 3 days in presence of 0.033 uM acalabrutinib relative to control; settings: SU-DHL-4, 72 h, time 3 day, read-out: GI
OCI-Ly10 [32] = experiment: Growth inhibition of human OCILY10 cells at 10 uM incubated for 3 days in presence of 0.17 uM acalabrutinib relative to control; settings: OCI-Ly10, 72 h, time 3 day, read-out: GI
OCI-Ly10 [33] = experiment: Growth inhibition of human OCILY10 cells at 1.7 uM incubated for 3 days in presence of 0.033 uM acalabrutinib relative to control; settings: OCI-Ly10, 72 h, time 3 day, read-out: GI
SUD4 [34] = experiment: Growth inhibition of human SU-DHL-4 cells at 0.33 uM incubated for 3 days in presence of 0.33 uM acalabrutinib relative to control; settings: SU-DHL-4, 72 h, time 3 day, read-out: GI
OCI-Ly10 [35] = experiment: Growth inhibition of human OCILY10 cells at 3.3 uM incubated for 3 days in presence of 0.33 uM acalabrutinib relative to control; settings: OCI-Ly10, 72 h, time 3 day, read-out: GI
OCI-Ly10 [36] = experiment: Growth inhibition of human OCILY10 cells at 3.3 uM incubated for 3 days in presence of 0.17 uM acalabrutinib relative to control; settings: OCI-Ly10, 72 h, time 3 day, read-out: GI
SUD4 [37] = experiment: Growth inhibition of human SU-DHL-4 cells at 1.7 uM incubated for 3 days in presence of 0.017 uM acalabrutinib relative to control; settings: SU-DHL-4, 72 h, time 3 day, read-out: GI
OCI-Ly10 [38] = experiment: Growth inhibition of human OCILY10 cells at 0.33 uM incubated for 3 days in presence of 0.003 uM acalabrutinib relative to control; settings: OCI-Ly10, 72 h, time 3 day, read-out: GI
OCI-Ly10 [39] = experiment: Growth inhibition of human OCILY10 cells at 3.3 uM incubated for 3 days in presence of 0.033 uM acalabrutinib relative to control; settings: OCI-Ly10, 72 h, time 3 day, read-out: GI
SUD4 [40] = experiment: Growth inhibition of human SU-DHL-4 cells at 1.7 uM incubated for 3 days in presence of 0.17 uM acalabrutinib relative to control; settings: SU-DHL-4, 72 h, time 3 day, read-out: GI
SUD4 [41] = experiment: Growth inhibition of human SU-DHL-4 cells at 3.3 uM incubated for 3 days in presence of 0.003 uM acalabrutinib relative to control; settings: SU-DHL-4, 72 h, time 3 day, read-out: GI

CC[C@@H]1[C@H](F)C(=O)N[C@@H]1COc1nccc2cc(C(N)=O)c(OC)cc12 [ZIMLOVISERTIB]
inhibition of growth at 0.17 µM (OCI-Ly10 [1]): 22%
inhibition of growth at 0.33 µM (SUD4 [2]): 2%
inhibition of growth at 10 µM (SUD4 [3]): 3%
inhibition of growth at 10 µM (OCI-Ly10 [4]): 80%
inhibition of growth at 3.3 µM (SUD4 [5]): 3%
inhibition of growth at 10 µM (OCI-Ly10 [6]): 177%
inhibition of growth at 0.17 µM (OCI-Ly10 [7]): 93%
inhibition of growth at 0.17 µM (OCI-Ly10 [8]): 171%
inhibition of growth at 10 µM (SUD4 [9]): 7%
inhibition of growth at 0.17 µM (SUD4 [10]): 2%
inhibition of growth at 0.17 µM (SUD4 [11]): 6%
inhibition of growth at 0.33 µM (OCI-Ly10 [12]): 142%
inhibition of growth at 1.7 µM (OCI-Ly10 [13]): 170%
inhibition of growth at 3.3 µM (SUD4 [14]): 2%
inhibition of growth at 0.33 µM (SUD4 [15]): 1%
inhibition of growth at 10 µM (OCI-Ly10 [16]): 140%
inhibition of growth at 3.3 µM (SUD4 [17]): 2%
inhibition of growth at 1.7 µM (OCI-Ly10 [18]): 89%
inhibition of growth at 0.17 µM (SUD4 [19]): 1%
inhibition of growth at 3.3 µM (OCI-Ly10 [20]): 36%
inhibition of growth at 1.7 µM (OCI-Ly10 [21]): 26%
inhibition of growth at 0.17 µM (OCI-Ly10 [22]): 142%
inhibition of growth at 0.33 µM (SUD4 [23]): 1%
inhibition of growth at 10 µM (SUD4 [24]): 2%
inhibition of growth at 10 µM (SUD4 [25]): 2%
inhibition of growth at 3.3 µM (OCI-Ly10 [26]): 95%
inhibition of growth at 0.17 µM (OCI-Ly10 [27]): 171%
inhibition of growth at 10 µM (SUD4 [28]): 3%
inhibition of growth at 1.7 µM (SUD4 [29]): 2%
inhibition of growth at 1.7 µM (SUD4 [30]): 6%
inhibition of growth at 0.33 µM (SUD4 [31]): 1%
inhibition of growth at 10 µM (OCI-Ly10 [32]): 178%
inhibition of growth at 1.7 µM (OCI-Ly10 [33]): 139%
inhibition of growth at 0.33 µM (SUD4 [34]): 6%
inhibition of growth at 3.3 µM (OCI-Ly10 [35]): 170%
inhibition of growth at 3.3 µM (OCI-Ly10 [36]): 170%
inhibition of growth at 1.7 µM (SUD4 [37]): 2%
inhibition of growth at 0.33 µM (OCI-Ly10 [38]): 21%
inhibition of growth at 3.3 µM (OCI-Ly10 [39]): 139%
inhibition of growth at 1.7 µM (SUD4 [40]): 3%
inhibition of growth at 3.3 µM (SUD4 [41]): 2%
